# Source: article PMC12426922, “Fingerprinting the Intestinal Transport of Low-Molecular-Mass Advanced Glycation End-Products (AGEs) Using a Caco‑2 Transwell Model” (Journal of Agricultural and Food Chemistry, 2025)
# Several values for one entry are separate records, joined by “and”; a condition that tells them apart may be missing. Identical values can stand only once. Like-named read-outs stand apart in the source and are kept apart here. Marks after values point to notes of the source that are not given here.
# Experiments:
# [1] = system: differentiated Caco-2 cells; assay: WST-1 cytotoxicity assay, viability of differentiated Caco-2 cells after 2 h exposure; assay type: cell-based, Human
# Protocol: (§1) Human colon carcinoma cells (Caco-2 cells) were obtained from the American Type Culture Collection (ATCC, Rockville, MD, USA). Caco-2 cells were cultured in complete culture medium, composed of DMEM GlutaMAX with 10% FBS (v/v), 1% P/S (v/v), and 1% NEAA (v/v) at 37 °C in a 5% (v/v) CO2 incubator. In this study, Caco-2 cells within passages 10–15 were utilized.
# The WST-1 assay was used to quantify the viability of differentiated Caco-2 cells upon exposure to the individual AGEs and their equimolar mixture. To this end, Caco-2 cells were seeded in 96-well plates at 3 × 10^4 cells/well (100 μL) and incubated at 37 °C under 5% (v/v) CO2 for 20 days. The complete culture medium was refreshed on each alternate day. After full differentiation, the culture medium was removed, and the cells were washed with HBSS (containing 1% (v/v) HEPES) twice on the testing day. The same volume (100 μL) of HBSS containing a series of concentrations of the different individual test compounds or of a mixture containing all 10 AGEs was added from a 20-times-concentrated stock solution in HBSS. The test concentrations were designed based on the estimated daily intake of total AGEs (0.55–0.66 mg/(kg·day)) and high-exposure scenarios (1.4–1.8 mg/(kg day)). […] After exposure for 2 h, the absorbance at 440 and 620 nm was measured in a plate spectrophotometer (Molecular Devices, San Jose, CA, USA, Spectra Max M2). After measurement, the cell viability was calculated as cell viability (%)=(Atested 440 nm−Atested 620 nm)/(Acontrol 440 nm−Acontrol 620 nm)×100
# Caco-2 cell monolayer [2] = assay: Accumulation of AGEs in the Caco-2 cell monolayer after transport experiment; assay type: in vitro ADME, Human; settings: mixture, each AGE 100 μmol/L, 2 h
# Protocol: After the transport experiment, the cell monolayer on the inset membrane was washed three times with HBSS and three times with PBS. […] The samples were subsequently centrifuged at 16 000g for 20 min at 4 °C, and the supernatant was collected for further analysis by LC-MS.
# The analytical column was maintained at 40 °C throughout the quantification process. A multistep binary gradient system of water containing 0.1% (v/v) formic acid (solvent A) and acetonitrile containing 0.1% (v/v) formic acid (solvent B) was used. In the whole gradient program, the total proportion of solvents A and B is always equal to 100%. […] The initial flow rate was set to 0.30 mL/min. Subsequently, it was reduced to 0.25 mL/min at 0.3 min, which was kept until 10 min. Afterward, there was a gradual decrease, reaching 0.15 mL/min at 11 min, and this rate was maintained until 12 min. […] Between 1 and 11 min of gradient running, the line was set to MS, and for the other time periods, the line was set to waste. The retention time and mass spectrometry parameters of individual AGEs are listed in Table S1 and the chromatograms of the samples are shown in Figure S1.
# [3] = Transport of AGE mixture across Caco-2 cell layer (transwell, apical to basolateral); assay type: in vitro ADME, Human; settings: human; for recovery at 2 h, 100 μmol/L: read-out: percentage of the amount added at the apical side at t = 0: recovery; for Papp at 120 min, 100 μmol/L: data from 120 min
# Protocol: as §1
# (§2) Caco-2 cells were cultured until reaching 50%–60% confluence (undifferentiated Caco-2 cells), followed by trypsinization. Then, cells were seeded at 3 × 10^4 cells per insert in 100 μL of complete culture medium into the transwell inserts of a 24-well transwell plate, and 600 μL of complete culture medium was added to the basolateral compartments. In both the apical and basolateral compartments, the medium was renewed every other day. After 2 weeks, the transepithelial electrical resistance (TEER) value was measured using a Millicell ERS-2 Electrical Resistance System (Burlington, MA, USA) every other day. Only wells with a TEER value of >400 Ω/cm^2 were used for transport experiments. Moreover, the TEER value was measured before and after the transport experiment to ascertain that the Caco-2 cell layer remained intact during the whole transport experiment.
# (§3) Transport experiments were performed after 20 days of differentiation of the Caco-2 cells. The culture medium was replaced with HBSS (containing 1% (v/v) HEPES) 30 min prior to testing in both the apical and basolateral compartments. After the 30 min preincubation, 100 μL of HBSS containing a mixture of the 10 different AGEs including CML, CEL, GALA, argpyrimidine, MG-H1, GOLD, GOLA, MOLD, pentosidine, and pyrraline, each at 100 μmol/L, was added to the apical compartment after removing the preincubation medium, while the basolateral medium was replaced by 600 μL of HBSS. […] At 120 min, a 10 μL sample from the apical side was taken for calculating apical side retention (nontransported percentage).
# (§4) The apparent permeability coefficient (Papp) value was calculated according to the methodology described by Yee.
# (§5) AGEs were quantified by LC-MS using a Shimadzu Nexera XR LC-40D XR UPLC system (Kyoto, Japan) equipped with a UPLC Amide column (100 mm × 2.1 mm, 1.7 μm) without derivatization coupled with a Shimadzu LCMS-8045 triple quadrupole mass spectrometer (Kyoto, Japan). The analytical column was maintained at 40 °C throughout the quantification process. A multistep binary gradient system of water containing 0.1% (v/v) formic acid (solvent A) and acetonitrile containing 0.1% (v/v) formic acid (solvent B) was used. In the whole gradient program, the total proportion of solvents A and B is always equal to 100%. The gradient program was designed as follows: 75% solvent B to 12.5% solvent B from 0 to 10 min, followed by 12.5% solvent B from 10 to 11 min. […] The initial flow rate was set to 0.30 mL/min. Subsequently, it was reduced to 0.25 mL/min at 0.3 min, which was kept until 10 min. Afterward, there was a gradual decrease, reaching 0.15 mL/min at 11 min, and this rate was maintained until 12 min. […] Between 1 and 11 min of gradient running, the line was set to MS, and for the other time periods, the line was set to waste. The retention time and mass spectrometry parameters of individual AGEs are listed in Table S1 and the chromatograms of the samples are shown in Figure S1.
# Caco-2 cell layer = assay: as above; assay type: in vitro ADME, Human
# Protocol: as §1, §2, §3, §4, §5
# PepT1 = assay: as above; assay type: in vitro ADME, Human; settings: human, mixture, each AGE 100 μmol/L
# Protocol: as §1, §2, §3, §4, §5
# Caco-2 cell monolayer [4] = system: Caco-2 cell monolayer; design: method as in our previous study; settings: CML in single testing; ref our previous study; cited from earlier work
# [5] = Caco-2, 4 °C, mixture, each AGE 100 μmol/L
# [6] = 4 °C, mixture, each AGE 100 μmol/L, 2 h
# [7] = Gly-Sar 10 mmol/L, mixture, each AGE 100 μmol/L, 2 h
# [8] = cytochalasin D pretreatment, mixture, each AGE 100 μmol/L, 2 h
# [9] = standard treatment, mixture, each AGE 100 μmol/L, 2 h
smiles,measurement,setting,value
"N[C@@H](CCCCNCC(=O)O)C(=O)O [CML, N-ε-(carboxymethyl)-lysine]",effect on cell viability,[1],did not affect cell viability up to the highest concentration tested
same,percentage of the amount added at the apical side at t = 0: accumulation,Caco-2 cell monolayer [2]; 4 °C,0.3 ± 0.3 ^c %
same,percentage of the amount added at the apical side at t = 0: accumulation,Caco-2 cell monolayer [2]; Gly-Sar 10 mmol/L,6.0 ± 2.1 ^a %
same,percentage of the amount added at the apical side at t = 0: accumulation,Caco-2 cell monolayer [2]; cytochalasin D pretreatment,3.8 ± 0.9 ^b %
same,percentage of the amount added at the apical side at t = 0: accumulation (intracellular),Caco-2 cell monolayer [2]; standard treatment,3.5% and 3.5 ± 0.6 ^b %
same,"recovery at 2 h, 100 μmol/L",[3]; [5],90 ± 5.3%
same,"Papp at 120 min, 100 μmol/L",[3]; [5],0.105 ×10⁻⁶ cm/s
same,"recovery at 2 h, 100 μmol/L","[3]; Caco-2, cytochalasin D pretreatment, mixture, each AGE 100 μmol/L",96.9 ± 5.8%
same,"Papp at 120 min, 100 μmol/L","[3]; Caco-2, standard treatment (37 °C), equimolar mixture of 10 AGEs, each 100 μmol/L apical",0.219 ×10⁻⁶ cm/s
same,"recovery at 2 h, 100 μmol/L","[3]; Caco-2, standard treatment, mixture, each AGE 100 μmol/L",93.1 ± 6.1%
same,"Papp at 120 min, 100 μmol/L","[3]; Caco-2, cytochalasin D 1 μg/mL, 30 min apical preincubation, mixture, each AGE 100 μmol/L",0.561 ×10⁻⁶ cm/s
same,effect of 4 °C on transport compared to 37 °C,Caco-2 cell layer; 4 °C versus 37 °C,significantly reduced
same,percentage of the amount added at the apical side at t = 0: apical side,Caco-2 cell layer; [6],89.4 ± 5.3 ^a %
same,percentage of the amount added at the apical side at t = 0: basolateral side,Caco-2 cell layer; [6],0.3 ± 0.1 ^b %
same,percentage of the amount added at the apical side at t = 0: apical side,Caco-2 cell layer; [7],86.2 ± 3.6 ^a %
same,percentage of the amount added at the apical side at t = 0: basolateral side,Caco-2 cell layer; [7],0.5 ± 0.1 ^b %
same,percentage of the amount added at the apical side at t = 0: apical side,Caco-2 cell layer; [8],91.8 ± 5.7 ^a %
same,percentage of the amount added at the apical side at t = 0: basolateral side,Caco-2 cell layer; [8],1.3 ± 0.6 ^a %
same,Papp value in the mixture as percentage of the Papp value tested in isolation in previous study,Caco-2 cell layer; mixture versus compound in isolation (our previous study),57%
same,percentage of the amount added at the apical side at t = 0: apical side (nontransported),Caco-2 cell layer; [9],89.0 ± 6.1 ^a %
same,percentage of the amount added at the apical side at t = 0: basolateral side (transported),Caco-2 cell layer; [9],0.5 ± 0.3 ^b %
same,"recovery at 2 h, 100 μmol/L","PepT1; Caco-2, with Gly-Sar 10 mmol/L (apical compartment), Gly-Sar 10 mmol/L, 2 h, read-out: percentage of the amount added at the apical side at t = 0: recovery",92.7 ± 3.1%
same,"Papp at 120 min, 100 μmol/L","PepT1; Caco-2, with Gly-Sar 10 mmol/L (apical), 10 mmol/L Gly-Sar apical (PepT1 inhibition), data from 120 min",0.207 ×10⁻⁶ cm/s
same,intracellular accumulation,Caco-2 cell monolayer [4],4.5%
